The record followed here is patent US9346815B2, “5-chloro-2-difluoromethoxyphenyl pyrazolopyrimidine compounds, compositions and methods of use thereof” (Genentech, Inc., priority 2014, dated 2016).

Data set [1] in a line: Clearance assay: mouse intravenous (IV) clearance. Conditions: female BALB/c mice; for IV Mouse CL, % of liver blood flow: clearance as % of mouse liver blood flow; for clearance: mouse, read-out: IV Mouse CL. The format is in vivo. The source says:
In certain instances high systemic clearance of a drug substance may be of benefit. For example, in the treatment of pulmonary diseases it may be beneficial to have high drug concentrations in the lung, with lower concentrations in the bloodstream or peripheral organs. In such cases, it may be advantageous to administer a drug substance with high systemic clearance via the inhaled delivery route. This approach may maximize pharmacologic activity of the drug substance in the lung while minimizing the possibility of on-target toxicity elsewhere in the body. The functional groups appended to the 5-chloro-2-difluoromethoxyphenyl pyrazolopyrimidine scaffold affect systemic clearance.
Female BALB/c mice were obtained from Charles River Labs (Hollister, Calif. USA). Twelve animals were given a single IV dose of 1 mg/kg of compounds via the tail vein. A representative dose solution was prepared as follows: the compound was dissolved in a mixture of 5% dimethylsulfoxide (DMSO), 35% polyethylene glycol (PEG 400), and 60% water (v/v/v), respectively, and administered at a dosing volume of 5 mL/kg. Mice weighed approximately 20-25 g at the start of the study. After intravenous administration of compounds, each animal was bled twice via retro-orbital and cardiac puncture. PK time points were collected at 2 min, 5 min, 15 min, 30 min, 1 hr, 2 hr, 4 hr, and 8 hr post-dose. Plasma samples were stored at approximately −80° C. until thawed for LC-MS/MS analysis. PK data analysis was performed on mean plasma concentration-time data and PK parameters were determined by non compartmental methods using WinNonlin® Enterprise, version 5.2.1 (Pharsight Corporation; Mountain View, Calif.).

Data set [2] addresses isolated recombinant JAK1 kinase domain (Homo sapiens (Human), UniProt P23458). Kind of data set: JAK1 enzyme assay (Caliper LabChip, peptide phosphorylation). Conditions: isolated recombinant JAK1 kinase domain, 25 μM ATP. The format is biochemical.
Data set [3] has as its target isolated recombinant JAK2 kinase domain (Homo sapiens (Human), UniProt O60674). Kind of data set: JAK2 enzyme assay (Caliper LabChip, peptide phosphorylation). The format is biochemical. The conditions noted are these: 25 μM ATP.
For data set [4], the system named is JAK1-dependent STAT6 phosphorylation downstream of IL-13 stimulation in TF-1 human erythroleukemia cells. Kind of data set: JAK1 pathway assay in TF-1 cells (IL-13-pSTAT6, MSD). Conditions: Homo sapiens, TF-1, TF-1 cells, read-out: IL13-pSTAT6 EC50_TF-1. The format is cell-based. An outline of the steps:
(§1)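 BEAS-2B: 1 h, complete growth medium, 100,000 cells/well. TF-1: 30 min, serum-free OptiMEM after overnight GM-CSF starvation, 300,000 cells/well. EC50 reported.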

The test system of data set [5] is JAK1-dependent STAT6 phosphorylation downstream of IL-13 stimulation in BEAS-2B human bronchial epithelial cells. Kind of data set: JAK1 pathway assay in BEAS-2B cells (IL-13-pSTAT6, MSD). In kind it is cell-based. Conditions: read-out: IL13-pSTAT6 EC50 (uM)_BEAS-2B. An outline of the steps:
as §1

Setting [6] is: plasma, single IV dose of 1 mg/kg via the tail vein.

Each structure is given as a SMILES string.

Sequence of isolated recombinant JAK2 kinase domain (O60674 849-1124): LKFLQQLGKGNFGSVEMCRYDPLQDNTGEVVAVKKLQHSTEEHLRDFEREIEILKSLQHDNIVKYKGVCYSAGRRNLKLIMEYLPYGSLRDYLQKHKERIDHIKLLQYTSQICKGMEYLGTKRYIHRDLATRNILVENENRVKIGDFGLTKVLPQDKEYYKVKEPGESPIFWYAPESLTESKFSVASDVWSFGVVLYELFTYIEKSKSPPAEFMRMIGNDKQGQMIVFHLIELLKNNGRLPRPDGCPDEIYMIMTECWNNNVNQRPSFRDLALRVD
Sequence of isolated recombinant JAK1 kinase domain (P23458 875-1153): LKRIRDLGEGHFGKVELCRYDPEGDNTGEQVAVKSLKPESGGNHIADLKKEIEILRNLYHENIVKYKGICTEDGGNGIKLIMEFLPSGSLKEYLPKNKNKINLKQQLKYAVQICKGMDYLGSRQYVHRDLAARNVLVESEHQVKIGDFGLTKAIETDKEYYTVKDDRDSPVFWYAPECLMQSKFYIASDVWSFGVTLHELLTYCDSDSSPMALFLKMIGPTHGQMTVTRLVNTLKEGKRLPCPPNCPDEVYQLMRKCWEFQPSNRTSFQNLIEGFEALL

What is called Ki is the equilibrium dissociation constant of an inhibitor or competing ligand from its target. Regarding `O=C(Nc1cn(CC(=O)N2C[C@H]3CN(CC(F)(F)F)C[C@H]3C2)nc1-c1cc(Cl)ccc1OC(F)F)c1cnn2cccnc12` [Example 59, N-[1-[2-[(3aR,6aS)-2-(2,2,2-trifluoroethyl)-1,3,3a,4,6,6a-hexahydropyrrolo[3,4-c]pyrrol-5-yl]-2-oxo-ethyl]-3-[5-chloro-2-(difluoromethoxy)phenyl]pyrazol-4-yl]pyrazolo[1,5-a]pyrimidine-3-carboxamide], in data set [1] (single IV dose of 1 mg/kg), the “IV Mouse CL, % of liver blood flow” value amounted to 43%. In addition, in data set [1] (setting [6]), the clearance is 39 mL/min/kg. Besides, the Ki in data set [2] stood at 0.5 nM; in data set [3] it was 0.8 nM. For the same molecule, the EC50 in data set [4] was determined as 3.7 nM.

Turning to `CN(CC(F)(F)F)C1CCN(c2nc(-c3cc(Cl)ccc3OC(F)F)c(NC(=O)c3cnn4cccnc34)s2)CC1` [Example 198, N-[4-[5-chloro-2-(difluoromethoxy)phenyl]-2-[4-[methyl(2,2,2-trifluoroethyl)amino]-1-piperidyl]thiazol-5-yl]pyrazolo[1,5-a]pyrimidine-3-carboxamide], the “IV Mouse CL, % of liver blood flow” value in data set [1] (single IV dose of 1 mg/kg) was >100%. In data set [1] (setting [6]), the clearance stood at 326 mL/min/kg. The inhibition constant Ki in data set [2] amounted to 2.72 nM; in data set [3] it was 2.17 nM. Also, in data set [4], the EC50 stood at 29.1 nM.

In the case of `O=C(Nc1cn(CC2(O)CCCC2)nc1-c1cc(Cl)ccc1OC(F)F)c1cnn2cccnc12` [Example 292, N-[3-[5-chloro-2-(difluoromethoxy)phenyl]-1-[(1-hydroxy-cyclopentyl)methyl]pyrazol-4-yl]pyrazolo[1,5-a]pyrimidine-3-carboxamide], the inhibition constant (Ki) was 0.39 nM in data set [2] and 0.4 nM in data set [3]. Further, the EC50 was 0.021 µM in data set [5] and 1.4 nM in data set [4].

Take `CN(C(=O)Cn1cc(NC(=O)c2cnn3cccnc23)c(-c2cc(Cl)ccc2OC(F)F)n1)C1(CO)CC1` [Example 293]: the inhibition constant (Ki) came to 0.29 nM in data set [2] and 0.38 nM in data set [3]. Also, the values for the EC50 in data set [5] and in data set [4] were 0.0081 µM and 3 nM, respectively.

`NCCn1cc(NC(=O)c2c(N)nn3cccnc23)c(-c2cc(Cl)ccc2OC(F)F)n1` [Example 295, 2-amino-N-[1-(2-aminoethyl)-3-[5-chloro-2-(difluoromethoxy)phenyl]pyrazol-4-yl]pyrazolo[1,5-a]pyrimidine-3-carboxamide]: the inhibitory constant (Ki) was 0.49 nM in data set [2] and 0.21 nM in data set [3]. The EC50 in data set [5] worked out at 0.0345 µM; in data set [4] it was 5.5 nM.

Regarding `CN[C@@H]1CCC[C@H](n2cc(NC(=O)c3c(N)nn4cccnc34)c(-c3cc(Cl)ccc3OC(F)F)n2)C1` [Example 296, 2-amino-N-[3-[5-chloro-2-(difluoromethoxy)phenyl]-1-[(1S,3R)-3-(methylamino)cyclohexyl]pyrazol-4-yl]pyrazolo[1,5-a]pyrimidine-3-carboxamide], the Ki is 0.26 nM in data set [2] and 0.21 nM in data set [3]. Besides, the EC50 was 0.0283 µM in data set [5] and 5.6 nM in data set [4].

For `Nc1nn2cccnc2c1C(=O)Nc1cn([C@H]2C[C@@H](N)C2)nc1-c1cc(Cl)ccc1OC(F)F` [Example 297, 2-Amino-pyrazolo[1,5-a]pyrimidine-3-carboxylic acid [1-(3-amino-cyclobutyl)-3-(5-chloro-2-difluoromethoxy-phenyl)-1H-pyrazol-4-yl]-amide], the inhibition constant Ki in data set [2] amounted to 0.32 nM; in data set [3], 0.07 nM. Further, the EC50 was 0.0308 µM in data set [5] and 7.1 nM in data set [4].

Turning to `CN[C@H]1C[C@@H](n2cc(NC(=O)c3c(N)nn4cccnc34)c(-c3cc(Cl)ccc3OC(F)F)n2)C1` [Example 298, 2-amino-N-[3-[5-chloro-2-(difluoromethoxy)phenyl]-1-[3-(methylamino)cyclobutyl]pyrazol-4-yl]pyrazolo[1,5-a]pyrimidine-3-carboxamide], the values for the Ki in data set [2] and in data set [3] were 0.52 nM and 0.18 nM, respectively. The EC50 in data set [5] was 0.0215 µM; in data set [4], 4.4 nM.

With `CCN(Cc1ccnc(C)c1)C(=O)Cn1cc(NC(=O)c2cnn3cccnc23)c(-c2cc(Cl)ccc2OC(F)F)n1` [Example 299, N-[3-[5-chloro-2-(difluoromethoxy)phenyl]-1-[2-[ethyl-[(2-methyl-4-pyridyl)methyl]amino]-2-oxo-ethyl]pyrazol-4-yl]pyrazolo[1,5-a]pyrimidine-3-carboxamide], the Ki is 0.38 nM in data set [2] and 0.39 nM in data set [3]. Besides, the values for the EC50 in data set [5] and in data set [4] were 0.0104 µM and 4.1 nM, respectively.

Take `CCN(Cc1ccnc(Cl)c1)C(=O)Cn1cc(NC(=O)c2cnn3cccnc23)c(-c2cc(Cl)ccc2OC(F)F)n1` [Example 300, N-[3-[5-chloro-2-(difluoromethoxy)phenyl]-1-[2-[(2-chloro-4-pyridyl)methyl-ethyl-amino]-2-oxo-ethyl]pyrazol-4-yl]pyrazolo[1,5-a]pyrimidine-3-carboxamide]: the inhibition constant (Ki) was 0.28 nM in data set [2] and 0.18 nM in data set [3]. The EC50 in data set [5] was determined as 0.0142 µM; in data set [4], 4 nM.

With `CCN(Cc1cccnc1)C(=O)Cn1cc(NC(=O)c2cnn3cccnc23)c(-c2cc(Cl)ccc2OC(F)F)n1` [Example 301, N-[3-[5-chloro-2-(difluoromethoxy)phenyl]-1-[2-[ethyl(3-pyridylmethyl)amino]-2-oxo-ethyl]pyrazol-4-yl]pyrazolo[1,5-a]pyrimidine-3-carboxamide], the figures for the Ki in data set [2] and in data set [3] were 0.33 nM and 0.36 nM, respectively. Besides, the results for the EC50 in data set [5] and in data set [4] were 0.0095 µM and 3.4 nM, respectively.

As for `N=C(N)CCn1cc(NC(=O)c2cnn3cccnc23)c(-c2cc(Cl)ccc2OC(F)F)n1` [Example 304, N-[1-(2-carbamimidoylethyl)-3-[5-chloro-2-(difluoromethoxy)phenyl]-1H-pyrazol-4-yl]pyrazolo[1,5-a]pyrimidine-3-carboxamide], the Ki in data set [2] amounted to 0.78 nM; in data set [3], 0.39 nM. The EC50 amounted to 0.0469 µM in data set [5] and 5.9 nM in data set [4].

Take `N=C(N)CCCn1cc(NC(=O)c2cnn3cccnc23)c(-c2cc(Cl)ccc2OC(F)F)n1` [Example 305, N-[1-(4-amino-4-imino-butyl)-3-[5-chloro-2-(difluoromethoxy)phenyl]pyrazol-4-yl]pyrazolo[1,5-a]pyrimidine-3-carboxamide]: the inhibition constant (Ki) in data set [2] was determined as 0.61 nM; in data set [3], 0.32 nM. In addition, the EC50 is 0.0426 µM in data set [5] and 10.9 nM in data set [4].

On to `CCOC(=O)CNCCn1cc(NC(=O)c2cnn3cccnc23)c(-c2cc(Cl)ccc2OC(F)F)n1` [Example 306, Ethyl 2-[(2-[3-[5-chloro-2-(difluoromethoxy)phenyl]-4-[pyrazolo[1,5-a]pyrimidine-3-amido]-1H-pyrazol-1-yl]ethyl)amino]acetate], for which the Ki in data set [2] amounted to 1.15 nM; in data set [3], 0.54 nM. Moreover, the EC50 in data set [5] is 0.0659 µM; in data set [4] it was 6.2 nM.

Turning to `O=C(CNCCn1cc(NC(=O)c2cnn3cccnc23)c(-c2cc(Cl)ccc2OC(F)F)n1)OC1CCCC1` [Example 307, cyclopentyl 2-[2-[3-[5-chloro-2-(difluoromethoxy)phenyl]-4-(pyrazolo[1,5-a]pyrimidine-3-carbonylamino)pyrazol-1-yl]ethylamino]acetate], the Ki in data set [2] was 1.45 nM; in data set [3], 0.59 nM. In addition, the EC50 in data set [5] amounted to 0.025 µM; in data set [4], 6.1 nM.

As for `CCOC(=O)[C@@H](N)CCn1cc(NC(=O)c2cnn3cccnc23)c(-c2cc(Cl)ccc2OC(F)F)n1` [Example 309, ethyl (2S)-2-amino-4-[3-[5-chloro-2-(difluoromethoxy)phenyl]-4-(pyrazolo[1,5-a]pyrimidine-3-carbonylamino)pyrazol-1-yl]butanoate], the Ki in data set [2] is 1.34 nM; in data set [3], 0.47 nM. Further, the EC50 in data set [5] is 0.049 µM; in data set [4], 16.3 nM.

In the case of `CC(C)(O)Cn1cc(NC(=O)c2cnn3cccnc23)c(-c2cc(Cl)ccc2OC(F)F)n1` [i], the “mouse IV clearance as % of mouse liver blood flow” value in data set [1] (single IV dose of 1 mg/kg) stood at 6%. For the same molecule, in data set [1] (single IV dose of 1 mg/kg via the tail vein, plasma), the “mouse intravenous (IV) clearance value” is on record as 5.3 mL/min/kg.
